In US6391880B1, “Heterocyclic compounds useful as oxido-squalene cyclase inhibitors” (Zeneca Limited, priority 1997, dated 2002):

Tests used:
[1] = molecular target: T1, rat microsomal oxido-squalene cyclase (Rattus norvegicus, UniProt P48450); assay: In vitro test to measure inhibition of oxido-squalene cyclase; type: biochemical; details: at a concentration of 0.1 μM; rat liver microsomes
T1 construct: Microsomes are prepared from rat liver according to methods known in the art; from tissue; host or cells: rat liver microsomes
T1 sequence (P48450 1-733): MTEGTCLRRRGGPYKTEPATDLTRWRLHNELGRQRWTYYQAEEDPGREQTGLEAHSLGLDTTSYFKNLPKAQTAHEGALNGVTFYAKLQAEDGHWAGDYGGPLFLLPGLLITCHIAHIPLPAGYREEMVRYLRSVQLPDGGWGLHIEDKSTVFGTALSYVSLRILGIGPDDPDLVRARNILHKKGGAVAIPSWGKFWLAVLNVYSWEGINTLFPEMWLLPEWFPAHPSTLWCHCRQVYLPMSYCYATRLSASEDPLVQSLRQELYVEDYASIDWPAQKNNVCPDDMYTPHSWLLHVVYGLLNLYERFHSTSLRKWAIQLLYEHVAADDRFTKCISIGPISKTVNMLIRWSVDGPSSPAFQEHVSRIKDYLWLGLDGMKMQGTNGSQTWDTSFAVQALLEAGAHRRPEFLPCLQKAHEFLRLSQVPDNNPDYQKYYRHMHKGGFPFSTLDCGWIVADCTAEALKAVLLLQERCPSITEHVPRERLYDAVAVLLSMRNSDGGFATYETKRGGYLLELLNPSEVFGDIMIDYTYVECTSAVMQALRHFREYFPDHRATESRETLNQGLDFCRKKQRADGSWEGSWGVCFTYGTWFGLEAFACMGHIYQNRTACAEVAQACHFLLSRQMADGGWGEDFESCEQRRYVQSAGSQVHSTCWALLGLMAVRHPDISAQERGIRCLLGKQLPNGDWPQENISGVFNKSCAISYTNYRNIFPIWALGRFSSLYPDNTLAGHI
Description: (a) In Vitro Test to Measure Inhibition of Oxido-Squalene Cyclase
This test measures the inhibition of microsomal oxido-squalene cyclase in vitro by compounds at set concentrations in the incubation medium.
Microsomes are prepared from rat liver according to methods known in the art, for example, the method described in published European Patent Application No 324,421 and stored in liquid nitrogen prior to assay. Assay vials are kept at 37° C. throughout the incubation. The microsomes typically contain 15-20 mg of protein per ml of microsomes. For assay, 1 ml of microsomes are diluted by the addition of 722 μl of 50 mM phosphate buffer pH 7.4.
Phosphate buffered Tween 80 (polyoxyethylene sorbitan […]) is prepared by adding 0.1 g Tween 80 to 100 ml of 50 mM phosphate buffer.
A stock solution of oxido-squalene is made up as a solution in ethanol (0.65 mg. ml.^−1). 18 μl of radio-labelled oxido-squalene (1 μCi.ml^−1) is evaporated to dryness under a stream of nitrogen and redissolved in 1 ml of ethanol and 1 ml of the stock solution of oxido-squalene is added.
The test compound is dissolved in dimethyl sulphoxide to give a 10^−4M stock solution. […]
The samples are then placed in a water bath at 80° C. for 2 hours to saponify. […] Reaction rate is measured as the conversion of oxido-squalene to lanosterol, and the effects of test compounds are expressed as an inhibition of this process.

[2] = tested on: rat cholesterol biosynthesis; assay: In vivo test to measure inhibition of oxido-squalene cyclase / cholesterol biosynthesis in the rat; details: dosed at 2 mg/kg, oral
Description: (b) In Vivo Test to Measure Inhibition of Oxido-Squalene Cyclase
The ability of a compound to inhibit oxido-squalene cyclase and/or inhibit cholesterol biosynthesis may be assessed by a routine laboratory procedure carried out in the rat. The test involves administration of the compound to rats on a reversed lighting regimen. Female rats (35-55 g) are housed in reverse lighting conditions (red light from 0200 h-1400 h) for a period of about 2 weeks prior to test. Animals are allowed free access to chow and drinking water throughout this period. At test, animals should weigh 100-140 g. The rats are dosed orally with the compound (typically 10-50 mg/kg) formulated in apolyethylene glycol/hydroxypropylmethyl cellulose mix. After 1 hour the rats are given […] sodium mevalonate (15 μCi/kg) intraperitoneally. Two hours after administration of the compound the rats are terminated and a piece of liver removed and weighed. The tissue is saponified at 80° C. for 2 hours in an ethanolic/potassium hydroxide solution (80% w/v aqueous KOH diluted 1:10 with ethanol). Water (2 ml) is added and the mixture extracted with iso-hexane (2×5 ml). The organic extracts are combined, evaporated to dryness under a stream of nitrogen and the residue is dissolved in a mixture of acetonitrile/iso-propanol (300 μl). […] The radio-label content of each fraction is assessed using a radio chemical flow detector. […]

melting point [°C]	Structure (SMILES)	inhibition of rat microsomal oxido-squalene cyclase [1]	inhibition of rat cholesterol biosynthesis [2]
154 to 155	O=C(C1CCN(S(=O)(=O)c2ccc(Br)cc2)CC1)N1CCC(c2ccncc2)CC1	–	–
–	O=C(N1CCC(c2ccncc2)CC1)N1CCN(S(=O)(=O)c2ccc(Br)cc2)CC1 [Example 2]	about 94%	about 85%
